Reference: patent publication US8252748B2, “Peptide derived from neurotensin receptor 3 and use thereof in the treatment of psychiatric diseases” (Centre National de la Recherche Scientifique—CNRS, priority 2007, dated 2012)
No end group written: not given here.

Columns and labels:
[1] = test system: hippocampus progenitor cells; test: Neurogenesis (BrdU-positive cells) after 4 days of treatment; format: in vivo, mouse; details: PE 10^−5 M
Text: In contrast to many antidepressants now commonly used, the efficacy of action of the peptide of the invention is very rapid. […] 93: 3908-3913 (1996) (28) and with a considerable decrease in neurogenesis in the dentate gyrus (Gould, E., Tanapat, P., McEwen, B. S., Flugge, G., Fuchs, E. “Proliferation of granule cell precursors in the dentate gyrus of adult monkeys is diminished by stress” Proc Natl Acad Sci USA, 95: 3168-3171 (1998)) (29).
The experimental protocol is that described in the material and methods (Supplement) of the work of Santarelli et al., “Requirement of hippocampal neurogenesis for the behavioral effects of antidepressants” Science, 301: 805-809 (2003) (24) apart from the duration of treatment, which is four days.
The increase was evaluated using the one-factor ANOVA test followed by the post-hoc test.

mouse (C57Black/J) [2] = test: Forced swimming test (FST); format: in vivo
Text: (§1) The inventors conducted three types of behavioral experiments that are regarded as classical for determining the antidepressant activity of a substance (Nestler E. J., Gould E., Manji H., Buncan M., Duman R. S., Greshenfeld H. K., Hen, R. et al. “Preclinical models: status of basic research in depression” Biol Psychiatry. 15, 503-528 (2002) (20) and Cryan, J. & Holmes, A. “The ascent of mouse: advances in modeling human depression and anxiety” Nat Rev Drug Discov. 4, 775-790 (2005) (21)). The effects of the propeptide of the present invention were compared with those of the saline solution in which it is dissolved and with those of fluoxetine, one of the most-used antidepressants in clinical practice. The mouse strain used is C57Black/J strain. TREK-1^−/− mice were also measured in these various tests.
The propeptide is dissolved in 0.9% NaCl saline solution to the desired concentrations: 10^−5 M, 10^−6 M, 10^−7 M and […]. Different volumes are injected depending on the technique used: • intracerebroventricular: 5 μl • intravenous: 100 μl • intraperitoneal: 100 μl
For the ICV injections, a Hamilton syringe (Fisher Bioblock) (trademark) of 10 μl is used, and in the case of IV or IP injections, a needle of 0.45×12 mm is used.
A. Forced Swimming Test (FST) (Cryan & Holmes, 2005 (21)) […]

mouse (C57Black/J) [3] = test: Tail suspension test (TST); format: in vivo; details: IV 100 μl at 1 μM per animal; 30 min after injection
Text: as §1
In the next two tests, the propeptide of the present invention was administered by the IV route at a rate of 100 μl at 1 μM per animal.
B. Tail Suspension Test (TST)
(see Cryan, J. & Holmes, A. (2005) (21) and Ripoll, N., David, D., Dailly, E., Hascoet, M. & Bourin, M. “Antidepressant-like effects in various mice strains in the tail suspension” Behav Brain Res. 143(2:193-200 (2003) (22).)
The experiment, 30 min after injection of the test substance in the mouse, consists of suspending the mouse by the tail by means of an adhesive ribbon and measuring the immobility time for 6 min.

C57BL6/J mice = test: Intake of food and drinking water after long-term treatment; format: in vivo, mouse; details: daily IP 100 μl at 10^−5 M for 15 days; 6 and 72 hours after end of treatment
Experimental: The intake of food and of drinking water was also measured. Two experimental groups of C57BL6/J mice (n=10 per group) were used: the first group received an intraperitoneal injection daily for 15 days of 100 μl of physiological saline solution (“PHYS SALINE”), the second group received an intraperitoneal injection daily for 15 days of 100 μl of a solution containing the peptide of sequence ID No. 2 at a concentration of 10^−5M (“PE 10^−5 M”).
These measurements were taken 6 and 72 hours after the end of long-term treatment.
The difference was evaluated using the Student t test.

Sequence: APLPRWSGPIGVSWGLR [propeptide, APLPRWSGPIGVSWGLR]
- neurogenesis relative to physiological saline [1]: significant increase in neurogenesis
- effect on immobility time (mouse (C57Black/J) [2]; ICV, IV or IP injection, 30 min after injection): comparable to those produced by fluoxetine
- crossing of the blood-brain barrier (BBB) (mouse (C57Black/J) [2]; inferred from activity by intravenous or intraperitoneal as well as central route): easily crosses the blood-brain barrier
- effect on immobility time (mouse (C57Black/J) [3]): comparable to those produced by fluoxetine
- food intake (C57BL6/J mice): does not have a significant effect
- intake of drinking water (C57BL6/J mice): no significant difference
